# Tested on: Listeria innocua 33090
# Assay: colony overlay assay of peptide-secreting E. coli clones (library screening and re-test)
# Assay type: cell-based
# Parameters: key: higher activity group (H); equal activity group (E); lower activity group (L)
# Settings: library screening; selected colonies pooled by zone size; peptides identified by 454 sequencing, full-length sequences with minimum 20 reads
# Description: For the in vivo production of AMPs, we have employed an E. coli expression system that relies on periplasmic-expression of recombinant peptides in a host cell that lacks the lpo membrane protein, thus releasing the peptides present in the periplasmic space outside the cells. When the producer cells are grown into colonies on a solid substrate, it leads to accumulation of the recombinant peptides around the colony and allows for easy library screening. The screening assay used in this study was a modified version of the standard agar diffusion method as previously described. Library-transformed E. coli colonies are overlaid with a tester strain and incubated overnight to allow for peptide expression and tester strain growth. Next day, the plates are inspected for the formation of clear growth inhibition zones around E. coli colonies, which is an indication of active AMP production by the host colony.
# For the construction of Pln-423 mutant library in E. coli, the expression system that consists of a periplasmic-leaky E. coli strain JE5505 and the expression plasmid pFLAG-CTS was employed for direct screening of peptide activities. It should be noted here that this plasmid contains ompA secretion signal sequence and cleavage of this sequence results in a serine residue at the N-terminal of all mature peptides. A total of 1.0×10^5 colonies, approximately 8-fold coverage of the library, were screened against Listeria innocua 33090 in five separate screening experiments. L. innocua was previously deemed as a suitable indicator for pathogenic L. monocytogenes displaying similar bacteriocin sensitivity, therefore it was used as a surrogate strain throughout this study. The selection process involved two criteria; 1) the size of the each inhibition zone was compared to that of wild-type Pln-423 as a correlation to anti-listerial activity level, 2) when several colonies formed inhibition zones that are very similar in size and character, only a few from each group were selected. The colonies were pooled into three groups based on their activities, giving 43 clones in a higher activity group (H), 81 clones in an equal activity group (E), and 241 clones in a lower activity group (L). Their plasmids were extracted from each activity group and analyzed by both Sanger and 454 high-throughput sequencing to identify peptide sequences.
# These clones were also re-tested by colony overlay assay to compare their activities to wild-type Pln-423 based on the size of the inhibition zone around each clone (Figure 2-A). Based on this assay, all ten plantaricin mutants formed larger inhibition zones (10.3±0.5 to 11.4±0.3 mm zone diameter) compared to wild-type Pln-423 (6.2±0.2 mm) against L. innocua 33090. Out of those ten, three clones have a single mutation and […] clones have two mutations and the remaining single clone has three mutations. […] Positions like Ser23, Ser27, His28, and Lys36 were commonly mutated with similar amino acids indicating their potential role on higher peptide activity.
# The screening method used in this study was a modified version of the standard colony overlay method as previously described. All the chemicals and growth media supplements were obtained from either Sigma-Aldrich or Fisher Scientific unless otherwise stated. Transformed E. coli JE5505 cells were diluted to 3000–5000 cfu (determined empirically prior to screening by plating serial dilutions of E. coli suspensions of a known absorbance and counting the colonies after incubation) in 25 ml LB soft agar (0.8%, 45°C) per screening plate and poured into 150 mm petri dishes. Once the media was solidified, they were overlaid with 10 ml LB soft agar (45°C) and incubated at 37°C for 24 h for host-colony formation. Next day, these plates were re-overlaid with 10 ml TSB soft agar containing 1 mM IPTG and the indicator strain Listeria innocua ATCC 33090 (diluted to OD600 = 0.03). […]
row,Substance,activity group by size of inhibition zone compared to wild-type Pln-423
1,KNYGNGVTCGKHSCSVNWGQAFSCSVEHLANFGHAKC* [GROUP E-UM-10],E
2,KYYGNGVTCDKHSCSVNWGQAFKCSVDHLANFGHGKC* [GROUP H-UM-4],H
3,KYYGNGVTCGKHSCRVNWAQAFSCTVSHLANFGHGKC* [GROUP L-UM-2],L
4,KYYGNGVTCGKHSCSVNAGQAFSCAVSHLANFGHGKC* [Pep-2_497],E
5,KYYGNGVTCGKHSCSVNWAQAFSCNVSHLANFGHGKC* [Pep-2_4793],L
6,KYYGNGVTCGKHSCSVNWAQAFSCSVSHLANFGHGHC* [Pep-2_1213],L and E
7,KYYGNGVTCGKHSCSVNWAQAFSCSVSHLANFGHGLC* [Pep-2_12029],L
8,KYYGNGVTCGKHSCSVNWAQAFSCSVVHLANFGHGKC* [Pep-2_6197],L
9,KYYGNGVTCGKHSCSVNWAQALSCSVSHLANFGHGKC* [Pep-2_1132],L
10,KYYGNGVTCGKHSCSVNWAQGFSCSVSHLANFGHGKC* [Pep-2_1127],L
11,KYYGNGVTCGKHSCSVNWGAAFSCAVSHLANFGHGKC* [Pep-2_5015],L
12,KYYGNGVTCGKHSCSVNWGDAFSCSVAHLANFGHGKC* [Pep-2_1487],L
13,KYYGNGVTCGKHSCSVNWGEAFSCAVSHLANFGHGKC* [Pep-2_5012],E
14,KYYGNGVTCGKHSCSVNWGEAFSCSVHHLANFGHGKC* [Pep-2_5876],E
15,KYYGNGVTCGKHSCSVNWGEAFSCSVSHLANYGHGKC* [GROUP E-UM-2],E
16,KYYGNGVTCGKHSCSVNWGEAFVCSVSHLANFGHGKC* [Pep-2_3608],E
17,KYYGNGVTCGKHSCSVNWGGAFSCSVSHLANFGHGWC* [Pep-2_12251],L
18,KYYGNGVTCGKHSCSVNWGGALSCSVSHLANFGHGKC* [Pep-2_1780],L
19,KYYGNGVTCGKHSCSVNWGHAFSCSVSHLANFGHGHC* [Pep-2_11707],L
20,KYYGNGVTCGKHSCSVNWGKAFSCGVSHLANFGHGKC* [Pep-2_1367],L
21,KYYGNGVTCGKHSCSVNWGKAFSCSVSMLANFGHGKC* [Pep-2_1384],L
22,KYYGNGVTCGKHSCSVNWGLAFSCSVSNLANFGHGKC* [Pep-2_6742],L
23,KYYGNGVTCGKHSCSVNWGPAFSCSVSRLANFGHGKC* [Pep-2_6528],L
24,KYYGNGVTCGKHSCSVNWGQACSCSVSHLANFGHGKC* [Pep-1_30],L
25,KYYGNGVTCGKHSCSVNWGQAFACSVSHLANFGFGKC* [GROUP L-UM-23],L
26,KYYGNGVTCGKHSCSVNWGQAFACSVSHLANFGHGFC* [Pep-2_3808],L and E
27,KYYGNGVTCGKHSCSVNWGQAFACSVSHLANFGHGHC* [Pep-2_11729],L
28,KYYGNGVTCGKHSCSVNWGQAFACSVSHLANFGHGKC* [Pep-1_35],E

row,Substance,activity group by size of inhibition zone compared to wild-type Pln-423
1,KYYGNGVTCGKHSCSVNWGQAFACSVSHLANFGHGWC* [Pep-2_12269],L
2,KYYGNGVTCGKHSCSVNWGQAFCCSVSHLANFGHGKC* [GROUP L-UM-17],L
3,KYYGNGVTCGKHSCSVNWGQAFCCSVSHLANFGHGSC* [Pep-2_11946],L
4,KYYGNGVTCGKHSCSVNWGQAFDCSVSHLANFGHGKC* [GROUP E-UM-1],E
5,KYYGNGVTCGKHSCSVNWGQAFDCSVSHLANFGHGKC* [GROUP H-UM-1],H
6,KYYGNGVTCGKHSCSVNWGQAFDCSVSHLANFGHGKC* [GROUP L-UM-4],L
7,KYYGNGVTCGKHSCSVNWGQAFECRVSHLANFGHGKC* [Pep-2_3415],L and H
8,KYYGNGVTCGKHSCSVNWGQAFECSVDHLANFGHGKC* [Pep-2_3428],E
9,KYYGNGVTCGKHSCSVNWGQAFECSVSHIANFGHGKC* [Pep-2_3442],E and H
10,KYYGNGVTCGKHSCSVNWGQAFECSVSHLANFGHGKC* [Pep-1_32],L and H
11,KYYGNGVTCGKHSCSVNWGQAFECSVSHLANFGHNKC* [Pep-2_3477],L
12,KYYGNGVTCGKHSCSVNWGQAFECSVSHLANFGMGKC* [Pep-2_10754],E
13,KYYGNGVTCGKHSCSVNWGQAFECSVSHLATFGHGKC* [Pep-2_3453],E
14,KYYGNGVTCGKHSCSVNWGQAFECSVSRLANFGHGKC* [Pep-2_3433],E
15,KYYGNGVTCGKHSCSVNWGQAFECSVSWLANFGHGKC* [Pep-2_3438],L
16,KYYGNGVTCGKHSCSVNWGQAFKCSVIHLANFGHGKC* [Pep-2_3322],L
17,KYYGNGVTCGKHSCSVNWGQAFKCSVSLLANFGHGKC* [Pep-2_3328],L
18,KYYGNGVTCGKHSCSVNWGQAFMCSLSHLANFGHGKC* [GROUP L-UM-7],L
19,KYYGNGVTCGKHSCSVNWGQAFMCSVEHLANFGHGKC* [Pep-2_6004],L
20,KYYGNGVTCGKHSCSVNWGQAFNCSVENLANFGHGKC* [GROUP H-UM-3],H
21,KYYGNGVTCGKHSCSVNWGQAFSCAFSHLANFGHGKC* [Pep-2_5044],L
22,KYYGNGVTCGKHSCSVNWGQAFSCAVSALANFGHGKC* [Pep-2_5057],L
23,KYYGNGVTCGKHSCSVNWGQAFSCAVSHLANFGHGKC* [Pep-1_47],L
24,KYYGNGVTCGKHSCSVNWGQAFSCAVSHLANFGHHKC* [Pep-2_5095],L
25,KYYGNGVTCGKHSCSVNWGQAFSCAVSHLANFGVGKC* [Pep-2_5092],L
26,KYYGNGVTCGKHSCSVNWGQAFSCAVSRLANFGHGKC* [Pep-2_5053],L
27,KYYGNGVTCGKHSCSVNWGQAFSCCVSHLANFGHGKC* [GROUP L-UM-1],L

# — publication PMC3602187, “From Design to Screening: A New Antimicrobial Peptide Discovery Pipeline” (PLoS ONE, 2013)
